For 22 compounds, IC50, Activity and EC50 results are on record in ChEMBL document CHEMBL3259582, “Structure-activity relationship-guided development of retinoic acid receptor-related orphan receptor gamma (RORγ)-selective inverse agonists with a phenanthridin-6(5H)-one skeleton from a liver X receptor ligand” (Bioorg Med Chem, 2014).

SMILES strings stand for the structures. Bounds are passed on as bounds.

Data set [1] addresses T1, Nuclear receptor ROR-beta (Homo sapiens, UniProt Q92753).
T1 sequence (Q92753 whole entry): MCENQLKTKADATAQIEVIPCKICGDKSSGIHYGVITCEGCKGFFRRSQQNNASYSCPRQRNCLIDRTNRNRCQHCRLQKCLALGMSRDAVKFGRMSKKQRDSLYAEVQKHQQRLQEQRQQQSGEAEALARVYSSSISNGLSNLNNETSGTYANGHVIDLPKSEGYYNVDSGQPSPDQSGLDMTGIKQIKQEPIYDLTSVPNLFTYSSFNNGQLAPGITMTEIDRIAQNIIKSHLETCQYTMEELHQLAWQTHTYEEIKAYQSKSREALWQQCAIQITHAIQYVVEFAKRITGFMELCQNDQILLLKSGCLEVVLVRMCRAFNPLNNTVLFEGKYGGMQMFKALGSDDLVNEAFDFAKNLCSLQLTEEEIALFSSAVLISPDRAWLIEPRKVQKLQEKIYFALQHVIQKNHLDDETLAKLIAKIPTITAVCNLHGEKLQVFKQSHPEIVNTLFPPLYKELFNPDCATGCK
The experiment in a line: Inverse agonist activity at human ROR-beta expressed in HEK293 cells after 16 hrs by luciferase reporter gene assay. It counts as cell-based. A general note: A reporter such as luciferase makes a cellular process visible.

The target in data set [2] is T2, Nuclear receptor ROR-alpha (Homo sapiens, UniProt P35398).
T2 sequence (P35398 whole entry): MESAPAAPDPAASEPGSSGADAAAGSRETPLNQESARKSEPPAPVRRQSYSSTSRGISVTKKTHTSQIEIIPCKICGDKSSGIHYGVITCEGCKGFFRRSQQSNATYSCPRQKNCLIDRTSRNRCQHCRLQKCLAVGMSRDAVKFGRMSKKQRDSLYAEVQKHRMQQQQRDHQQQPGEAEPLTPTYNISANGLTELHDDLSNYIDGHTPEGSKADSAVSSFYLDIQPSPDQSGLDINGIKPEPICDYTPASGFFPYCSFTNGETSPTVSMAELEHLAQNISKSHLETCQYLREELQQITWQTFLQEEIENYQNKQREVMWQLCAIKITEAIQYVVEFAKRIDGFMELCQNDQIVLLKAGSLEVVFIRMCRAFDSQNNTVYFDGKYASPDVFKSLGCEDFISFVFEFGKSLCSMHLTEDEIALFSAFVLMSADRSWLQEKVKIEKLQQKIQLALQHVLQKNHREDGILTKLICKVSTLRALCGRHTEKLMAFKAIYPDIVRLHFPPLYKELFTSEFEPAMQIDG
The experiment in a line: Inverse agonist activity at human ROR-alpha1 expressed in HEK293 cells after 16 hrs by luciferase reporter gene assay. It is filed as cell-based.

Data set [3] has as its target T3, Nuclear receptor ROR-gamma (Homo sapiens, UniProt P51449).
T3 sequence (P51449 whole entry): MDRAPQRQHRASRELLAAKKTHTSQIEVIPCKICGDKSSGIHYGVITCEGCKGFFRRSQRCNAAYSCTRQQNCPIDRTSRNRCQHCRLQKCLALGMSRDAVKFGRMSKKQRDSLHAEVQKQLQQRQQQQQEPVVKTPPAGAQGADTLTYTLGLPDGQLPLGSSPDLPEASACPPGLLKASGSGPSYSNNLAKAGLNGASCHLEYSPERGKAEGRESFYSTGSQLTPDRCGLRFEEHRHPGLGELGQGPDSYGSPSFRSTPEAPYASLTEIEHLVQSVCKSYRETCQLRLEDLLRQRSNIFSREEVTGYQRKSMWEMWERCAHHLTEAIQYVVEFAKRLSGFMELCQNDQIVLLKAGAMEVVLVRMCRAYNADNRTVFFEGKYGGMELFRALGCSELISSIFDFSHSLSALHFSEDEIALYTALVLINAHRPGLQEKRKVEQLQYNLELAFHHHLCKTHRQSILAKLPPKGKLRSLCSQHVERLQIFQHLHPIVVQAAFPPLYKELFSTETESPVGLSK
The experiment in a line: Inverse agonist activity at human ROR-gamma1 expressed in HEK293 cells after 16 hrs by luciferase reporter gene assay. It counts as cell-based.

Another data set concerns HEK293. Description: Cytotoxicity against HEK293 cells. It is filed as cell-based. As to conditions: human; call rule not given here.
In data set [4] the target is T4, Oxysterols receptor LXR-alpha (Homo sapiens, UniProt Q13133).
T4 sequence (Q13133 whole entry): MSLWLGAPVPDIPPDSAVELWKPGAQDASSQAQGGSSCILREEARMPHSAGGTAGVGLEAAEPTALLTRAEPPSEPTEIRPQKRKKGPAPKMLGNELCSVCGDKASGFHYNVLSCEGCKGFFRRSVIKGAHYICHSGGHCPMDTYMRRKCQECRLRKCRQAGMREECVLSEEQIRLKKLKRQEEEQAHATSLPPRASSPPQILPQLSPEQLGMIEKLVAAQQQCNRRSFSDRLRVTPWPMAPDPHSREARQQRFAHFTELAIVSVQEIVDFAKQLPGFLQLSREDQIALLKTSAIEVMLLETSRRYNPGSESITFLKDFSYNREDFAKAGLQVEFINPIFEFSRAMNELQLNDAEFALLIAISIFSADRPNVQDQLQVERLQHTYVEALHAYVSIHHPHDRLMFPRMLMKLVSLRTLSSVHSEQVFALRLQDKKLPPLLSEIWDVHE
Description: Antagonist activity at human LXR-alpha expressed in HEK293 cells assessed as inhibition of T0901317-induced effect after 16 hrs by luciferase reporter gene assay. It counts as cell-based.

The target of data set [5] is T5, Oxysterols receptor LXR-beta (Homo sapiens, UniProt P55055).
T5 sequence (P55055 whole entry): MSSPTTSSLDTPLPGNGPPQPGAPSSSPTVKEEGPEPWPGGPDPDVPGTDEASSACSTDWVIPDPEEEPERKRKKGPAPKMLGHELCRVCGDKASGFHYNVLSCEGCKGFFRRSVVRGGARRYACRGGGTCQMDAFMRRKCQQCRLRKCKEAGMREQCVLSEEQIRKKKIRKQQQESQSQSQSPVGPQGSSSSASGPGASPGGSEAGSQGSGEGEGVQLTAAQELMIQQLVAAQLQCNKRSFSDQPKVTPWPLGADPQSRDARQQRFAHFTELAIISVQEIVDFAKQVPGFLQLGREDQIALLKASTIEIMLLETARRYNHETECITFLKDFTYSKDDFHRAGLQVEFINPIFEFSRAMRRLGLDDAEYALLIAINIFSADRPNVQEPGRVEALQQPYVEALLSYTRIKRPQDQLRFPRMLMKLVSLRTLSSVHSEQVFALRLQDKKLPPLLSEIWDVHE
Description: Antagonist activity at human LXR-beta expressed in HEK293 cells assessed as inhibition of T0901317-induced effect after 16 hrs by luciferase reporter gene assay. It counts as cell-based.

Data set [6] deals with T5, Oxysterols receptor LXR-beta. The experiment in a line: Agonist activity at human LXR-beta expressed in HEK293 cells after 16 hrs by luciferase reporter gene assay.
Data set [7] deals with T4, Oxysterols receptor LXR-alpha. The experiment in a line: Agonist activity at human LXR-alpha expressed in HEK293 cells after 16 hrs by luciferase reporter gene assay.
Data set [8] shares this target. The experiment in a line: Antagonist activity at human LXR-alpha expressed in HEK293 cells after 16 hrs by luciferase reporter gene assay. It counts as cell-based.
In data set [9] the target is T5, Oxysterols receptor LXR-beta. The experiment in a line: Antagonist activity at human LXR-beta expressed in HEK293 cells after 16 hrs by luciferase reporter gene assay. It is filed as cell-based.

In general, IC50 refers to the midpoint of a concentration-inhibition curve. `CCCCn1c(=O)c2cccc(OC)c2c2cc(C(O)(C(F)(F)F)C(F)(F)F)ccc21`: the IC50 in data set [1] (read-out: IC50) came to 7.5 µM; in data set [2] (read-out: IC50) it was 9.1 µM; in data set [3] (read-out: IC50) it was 5.7 µM.

Regarding `CCCCCCn1c(=O)c2ccccc2c2cc(C(O)(C(F)(F)F)C(F)(F)F)ccc21`, the IC50 is 5.4 µM in [1] (read-out: IC50), 7.6 µM in data set [2] (read-out: IC50) and 4.7 µM in [3] (read-out: IC50).

Turning to `CCCCn1c(=O)c2c(OC)cccc2c2cc(C(O)(C(F)(F)F)C(F)(F)F)ccc21`, the Activity result in the data set with HEK293 is on record as “Toxic”.

As to `O=c1[nH]c2ccc(C(O)(C(F)(F)F)C(F)(F)F)cc2c2ccccc12`, the IC50 in data set [1] (read-out: IC50), in data set [2] (read-out: IC50) and in data set [3] (read-out: IC50) was over 20 µM throughout.

Take `CCCCn1c(=O)c2ccc(Cl)cc2c2cc(C(O)(C(F)(F)F)C(F)(F)F)ccc21`: the IC50 in data set [4] (read-out: IC50) is over 3 µM; in data set [5] (read-out: IC50), 0.68 µM. Also, the EC50 entry in [6] and in data set [7] was “Not Active” in each case.

Take `CCCCn1c(=O)c2ccccc2c2cc(CO)ccc21`: the IC50 in data set [1] (read-out: IC50), in [2] (read-out: IC50) and in [3] (read-out: IC50) was over 20 µM throughout.

Regarding `CCCCn1c(=O)c2ccc(OC)cc2c2cc(C(O)(C(F)(F)F)C(F)(F)F)ccc21`, the IC50 amounted to 7.7 µM in data set [1] (read-out: IC50), 5.3 µM in [2] (read-out: IC50) and 1.1 µM in data set [3] (read-out: IC50).

Regarding `CCCCCCCCCCCCc1ccc2c(c1)c1ccccc1c(=O)n2CCCC`, the IC50 result in data set [1] (hek293), in [2] (hek293) and in data set [3] (hek293) was “Not Active” each time.

`CCn1c(=O)c2ccccc2c2cc(C(O)(C(F)(F)F)C(F)(F)F)ccc21`: the IC50 in data set [1] (read-out: IC50), in data set [2] (read-out: IC50) and in [3] (read-out: IC50) was over 20 µM throughout.

In the case of `O=S(=O)(c1ccccc1)N(CC(F)(F)F)c1ccc(C(O)(C(F)(F)F)C(F)(F)F)cc1` [T091317], the IC50 entry in data set [8], in [1] (hek293) and in [9] was “Not Active” throughout.

For the compound `CCCCn1c(=O)c2ccccc2c2cc(C(O)(C(F)(F)F)C(F)(F)F)c(OC)cc21`, the IC50 in [1] (read-out: IC50) came to 10.9 µM; in [2] (read-out: IC50), 7.8 µM; in data set [3] (read-out: IC50), 9.2 µM.

As to `CCCCn1c(=O)c2ccccc2c2ccccc21`, the IC50 in [1] (read-out: IC50) is 13.4 µM; in data set [2] (read-out: IC50), 10.2 µM; in data set [3] (read-out: IC50) it was 14.5 µM.

Take `CC(=O)Nc1nc(C)c(S(=O)(=O)Nc2ccc(C(O)(C(F)(F)F)C(F)(F)F)cc2)s1`: the IC50 entry in data set [4] (hek293) and in data set [5] (hek293) was “Not Active” each time. Further, the EC50 result in data set [6] and in data set [7] was “Not Active” throughout.

Take `CCCCn1c(=O)c2ccccc2c2cc(CC)ccc21`: the IC50 in [1] (read-out: IC50) came to 7.9 µM; in [2] (read-out: IC50) it was 9 µM; in data set [3] (read-out: IC50) it was 9.2 µM.

With `CCCCn1c(=O)c2ccccc2c2cc(C(O)(C(F)(F)F)C(F)(F)F)cc(OC)c21`, the IC50 in data set [1] (read-out: IC50), in data set [2] (read-out: IC50) and in data set [3] (read-out: IC50) was over 10 µM throughout.

For the compound `Cn1c(=O)c2ccccc2c2cc(C(O)(C(F)(F)F)C(F)(F)F)ccc21`, the IC50 in [1] (read-out: IC50), in [2] (read-out: IC50) and in data set [3] (read-out: IC50) was over 20 µM each time.

Consider `CCCn1c(=O)c2ccccc2c2cc(C(O)(C(F)(F)F)C(F)(F)F)ccc21`, for which the IC50 in data set [1] (read-out: IC50) is 8.2 µM; in data set [2] (read-out: IC50), 10.8 µM; in data set [3] (read-out: IC50), 4.2 µM.

In the case of `CCCCn1c(=O)c2ccccc2c2cc(C)ccc21`, the IC50 in data set [1] (read-out: IC50) was 17.1 µM; in data set [2] (read-out: IC50), 17.6 µM; in data set [3] (read-out: IC50), 16.8 µM.

As to `CCCCn1c(=O)c2ccccc2c2cc(C(C)(C)C)ccc21`, the IC50 in data set [1] (read-out: IC50) came out at 12.8 µM; in [2] (read-out: IC50), 11.8 µM; in data set [3] (read-out: IC50) it was 10.4 µM.

Consider `CCCCn1c(=O)c2ccccc2c2cc(C(O)(C(F)(F)F)C(F)(F)F)ccc21`, for which the IC50 amounted to 6.5 µM in data set [1] (read-out: IC50), 9.8 µM in [2] (read-out: IC50) and 3.9 µM in data set [3] (read-out: IC50).

As to `CCCCn1c(=O)c2cc(OC)ccc2c2cc(C(O)(C(F)(F)F)C(F)(F)F)ccc21`, the Activity result in the data set with HEK293 is recorded as “Toxic”.

On to `CCCCCCCCCn1c(=O)c2ccccc2c2cc(C(O)(C(F)(F)F)C(F)(F)F)ccc21`, for which the IC50 in data set [1] (read-out: IC50), in data set [2] (read-out: IC50) and in data set [3] (read-out: IC50) was over 20 µM throughout.
